Reference: US12139481B2, “Compositions comprising macrocycle derivatives incorporating bridged macrocycles and methods of producing and using same” (Southwestern Oklahoma State University, priority 2015, dated 2024)

Tests used:
[1] = test system: L. donovani promastigotes; test: Antileishmanial Alamar Blue assay on promastigotes; format: cell-based, Leishmania donovani; details: for X more potent than Pentamidine: L. donovani, ratio of molar IC50 to Pentamidine; for L. donovani IC50 / IC50: promastigotes, 48 hours, Alamar Blue; for IC50: read-out: L. donavani IC50
Summary of the method: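 Alamar Blue fluorescence (544/590 nm) quantified growth after 48 hours at 26° C of compound-treated promastigotes. Parasites were seeded at 5×10^5/mL in RPMI 1640 plus 10% FCS; drug range 50-3.1 μg/mL, and IC50 derived by plotting percent growth against test concentration.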

[2] = test system: Cryptococcus neoformans ATCC 90113; test: Antimicrobial microdilution assay against Cryptococcus neoformans (modified CLSI/NCCLS, optical density); format: cell-based; details: for X more potent than Amphotericin B: C. neoformans, ratio of molar IC50 to Amphotericin B; for C. neoformans IC50 / IC50: in vitro, C. neoformans ATCC 90113; for IC50: read-out: C. neoformans IC50 (mol/L)
Summary of the method: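 Fungicidal endpoint taken by subculturing 5 μL from each clear well onto agar, MFC being the lowest concentration with no regrowth. Duplicate wells of serially diluted compound (20% DMSO/saline) in RPMI pH 6.0, read at 630 nm pre- and post-incubation, under modified CLSI methods. IC50 means 50% growth inhibition against controls.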

[3] = test system: S. mansoni newly transformed schistosomula (NTS); test: In vitro testing on Schistosoma mansoni newly transformed schistosomula (NTS), viability score; format: cell-based; details: NTS S. mansoni, 33 μM, 72 h
Method: Assays were prepared according to the laboratory SOP for the lab of Dr. Jennifer Keiser (Swiss Tropical and Public Health Institute, Basel). Harvested S. mansoni cercariae (Liberian strain) obtained from infected Biomphalaria glabrata snails were mechanically transformed into newly transformed schistosomula (NTS) following standard procedures. Briefly, snails were placed under light in the morning to stimulate cercarial shedding. The cercarial suspension was collected, cooled for 30 minutes, and then vigorously pipetted (30×) and vortexed (3 minutes). The suspension was then placed in the incubator (37° C. and 5% CO2) for 30 minutes, and the vortexing and pipetting steps were repeated. The transformation was complete at this point, and the tails were separated from the heads by rinsing three times with cold HBSS. NTS were then incubated overnight in culture medium overnight and used the next day.
The original stock compounds (which were not already dissolved) were dissolved in dimethyl sulfoxide (DMSO) to a concentration of 10 mM. 100 NTS were placed in each well of a 96-well plate with culture medium, and the test compound for a final well volume of 250 μl. […] NTS incubated with no more than 1% DMSO served as control. NTS were kept in an incubator at 37° C. and 5% CO2 for up to 72 hours. After 72 hours, the condition of the NTS was microscopically evaluated using a scale from 3 (normal activity and no tegument alteration) to 0 (dead, completely granulated).

C. glabrata ATCC 90030 = test: Antifungal broth dilution assay against C. glabrata (modified CLSI); format: cell-based, Candida glabrata; details: for C. glabrata IC50 / IC50: in vitro; for IC50: converted with molecular weight; for X more potent than Amphotericin B: molar IC50 ratio versus amphotericin B
Summary of the method: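 Growth read by optical density at 530 nm, duplicate wells, 1% final DMSO. Staphylococcus spp.: Mueller-Hinton pH 7.3, 5.0×10^5 CFU/ml, 35 °C for 16-20 h; Candida spp.: RPMI/dextrose/glutamine/MOPS pH 6.0, 1.5×10^3 CFU/ml, 35 °C for 46-50 h. Reported values are 50% inhibition versus controls, no-growth MIC, and killing MFC/MBC.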

| Compound | X more potent than Pentamidine [1] | L. donovani IC50 [1] [µg/mL] | IC50 [1] [µM] | X more potent than Amphotericin B [2] | C. neoformans IC50 [2] [µg/mL] | IC50 [2] [µM] | Effect at 72 h (%) [3] [%] | C. glabrata IC50 (C. glabrata ATCC 90030) [µg/mL] | IC50 (C. glabrata ATCC 90030) [µM] | X more potent than Amphotericin B (C. glabrata ATCC 90030) |
| --- | --- | --- | --- | --- | --- | --- | --- | --- | --- | --- |
| Cl.Cl.Cl.Cl.Cl.Cl.Cl.Cl.O.O.O.O.c1cc(CN2CCCN3CCN(CCCNCC2)CC3)cc(CN2CCCN3CCN(CCCNCC2)CC3)c1 [KS226, m-SB-cyclams HCl salt] | 0.28 | 17.61 | 19.2 | 3.13 | 0.070 | 0.0762 | 5.41 |  |  |  |
| m-CB-cyclens HCl salt [DJC05C] | 0.21 | 22.89 | 25.7 | 0.23 | 0.940 | 1.06 | 5.41 |  |  |  |
| CN1CCCN2CCN(CCCN(Cc3cc(CN4CCCN5CCN(C)CCCN(CC5)CC4)cc(CN4CCCN5CCN(C)CCCN(CC5)CC4)c3)CC2)CC1 [BNS018, tris-CB-cyclams] | 0.57 | 7.73 | 9.25 | 2.21 | 0.090 | 0.108 | 11.71 |  |  |  |
| [Ni(Bn1Me1Bcyclam)(OAc)]PF6•0.5NH4PF6 [TRH11B] | 0.09 | 38.64 | 59.7 |  |  |  | 24.32 |  |  |  |
| CC(=O)[O-].F[P-](F)(F)(F)(F)F.[Ni+2].c1ccc(CN2CCN3CCN(CC2)CCN(Cc2ccccc2)CC3)cc1 [TC10, [Ni(Bn2Bcyclen)(OAc)]PF6] | 0.31 | 10.95 | 17.1 |  |  |  | 30.63 |  |  |  |
| CC(=O)[O-].CC(=O)[O-].CN(C)C=O.F[P-](F)(F)(F)(F)F.F[P-](F)(F)(F)(F)F.[Co+2].[Co+2].c1cc(CN2CCNCCN3CCN(CC3)CC2)ccc1CN1CCNCCN2CCN(CC2)CC1 [OB30, [Co2(p-SB-Cyclens)(OAc)2][PF6]2•DMF] |  |  |  | 0.33 | ≤ 0.800 | 0.729 | 5.41 | 0.800 | 0.729 | 1.95 |
| [Ni2(m-SB-Cyclams)(OAc)2][PF6]2 [KS25] |  |  |  | 0.02 | 16.030 | 15.7 | 18.02 |  |  |  |
| CC(=O)[O-].CC(=O)[O-].CC(=O)[O-].F[P-](F)(F)(F)(F)F.F[P-](F)(F)(F)(F)F.F[P-](F)(F)(F)(F)F.[Co+2].[Co+2].[Co+2].c1c(CN2CCCN3CCN(CCCNCC2)CC3)cc(CN2CCCN3CCN(CCCNCC2)CC3)cc1CN1CCCN2CCN(CCCNCC1)CC2 [CDG025, [Co3(tris-SB-Cyclams)(OAc)3][PF6]3] |  |  |  | 0.21 | 1.800 | 1.14 | 18.02 | 1.500 | 0.948 | 1.50 |
| CC(=O)[O-].CC(=O)[O-].CC(=O)[O-].CN1CCN2CCN(CC1)CCN(Cc1cc(CN3CCN4CCN(C)CCN(CC4)CC3)cc(CN3CCN4CCN(C)CCN(CC4)CC3)c1)CC2.F[P-](F)(F)(F)(F)F.F[P-](F)(F)(F)(F)F.F[P-](F)(F)(F)(F)F.[Cu+2].[Cu+2].[Cu+2] [BNS21, [Cu3(tris-CB-Cyclens)(OAc)3][PF6]3] |  |  |  | 0.28 | 1.320 | 0.85 | 5.41 |  |  |  |
| CC(=O)[O-].CC(=O)[O-].CN1CCN2CCN(CC1)CCN(Cc1cccc(CN3CCN4CCN(C)CCN(CC4)CC3)c1)CC2.F[P-](F)(F)(F)(F)F.F[P-](F)(F)(F)(F)F.[Cu+2].[Cu+2] [DJC06A, [Cu2(m-CB-Cyclens)(OAc)2][PF6]2] |  |  |  | 0.04 | 6.710 | 6.32 | 5.41 |  |  |  |
| CC(=O)[O-].CC(=O)[O-].CC(=O)[O-].CN1CCN2CCN(CC1)CCN(Cc1cc(CN3CCN4CCN(C)CCN(CC4)CC3)cc(CN3CCN4CCN(C)CCN(CC4)CC3)c1)CC2.F[P-](F)(F)(F)(F)F.F[P-](F)(F)(F)(F)F.F[P-](F)(F)(F)(F)F.O.O.O.O.O.O.[Ni+2].[Ni+2].[Ni+2] [BNS19] |  |  |  |  |  |  | 18.02 | 4.900 | 2.97 | 0.48 |
| CC(=O)[O-].CC(=O)[O-].CC(=O)[O-].F[P-](F)(F)(F)(F)F.F[P-](F)(F)(F)(F)F.F[P-](F)(F)(F)(F)F.O.[Ni+2].[Ni+2].[Ni+2].c1c(CN2CCNCCN3CCN(CC3)CC2)cc(CN2CCNCCN3CCN(CC3)CC2)cc1CN1CCNCCN2CCN(CC2)CC1 [CDG030, [Ni3(tris-SB-Cyclens)0Ac)3][PF6]3•H2O] |  |  |  | 0.45 | ≤ 0.800 | 0.528 | 18.02 | 4.170 | 2.75 | 0.52 |
| CC(=O)[O-].CC(=O)[O-].CC(=O)[O-].F[P-](F)(F)(F)(F)F.F[P-](F)(F)(F)(F)F.F[P-](F)(F)(F)(F)F.F[P-](F)(F)(F)(F)F.[NH4+].[Zn+2].[Zn+2].[Zn+2].c1c(CN2CCCN3CCN(CCCNCC2)CC3)cc(CN2CCCN3CCN(CCCNCC2)CC3)cc1CN1CCCN2CCN(CCCNCC1)CC2 [CDG026, [Zn3(tris-SB-Cyclams)(OAc)3][PF6]3•NH4PF6] |  |  |  | 0.04 | 10.030 | 5.69 | 11.71 | 3.420 | 1.94 | 0.73 |
| CC(=O)[O-].CC(=O)[O-].CN1CCCN2CCN(CCCN(Cc3cccc(CN4CCCN5CCN(C)CCCN(CC5)CC4)c3)CC2)CC1.F[P-](F)(F)(F)(F)F.F[P-](F)(F)(F)(F)F.[Cu+2].[Cu+2] [RM52, [Cu2(m-CB-Cyclams)(OAc)2][PF6]2] |  |  |  | 0.32 | 0.820 | 0.733 | 5.41 | 4.940 | 4.42 | 0.32 |
| [Cu3(tris-SB-Cyclens)(OAc)3][PF6]3•0.5NH4PF6 [CDG022] |  |  |  | 0.07 | 5.480 | 3.44 | 11.71 |  |  |  |
| CC(=O)[O-].F[P-](F)(F)(F)(F)F.[Co+2].c1ccc(CN2CCCN3CCN(CCCN(Cc4ccccc4)CC3)CC2)cc1 [TC11, [Co(Bn2Bcyclam)(OAc)]PF6] | 0.10 | 35.29 | 52.7 |  |  |  | 24.32 |  |  |  |
| [Cu2(m-SB-Cyclams)(OAc)2][PF6]2 [KS24] |  |  |  | 0.08 | 3.180 | 3.08 | 18.02 |  |  |  |
| [Zn3(tris-SB-Cyclens)(OAc)3][PF6]3•0.5NH4PF6 [CDG023] |  |  |  | 0.29 | 1.310 | 0.819 | 18.02 |  |  |  |
| CC(=O)[O-].F[P-](F)(F)(F)(F)F.[Zn+2].c1ccc(CN2CCN3CCN(CC2)CCN(Cc2ccccc2)CC3)cc1 [RM42, [Zn(Bn2Bcyclen)(OAc)]PF6] | 0.73 | 4.73 |  |  |  |  | 30.63 |  |  |  |
